Data: patent US20080076721A1, “Use of branched chain fatty acid amino acid salts and compositions thereof” (priority 2006, published 2008)
“Also recorded” adds a separate entry of the source.

Experiment: L-arginine phytanate method of use: 4-week oral post-workout supplementation in an experienced weight trained male (body weight, bench press)
Type: in vivo, human
Description: In this example a experienced weight trained person orally consumes 3 grams of L-arginine phytanate post workout for 4 weeks as a beverage, consumes no supplements for 4 weeks, then orally consumes phytanic acid in the same manner post workout for 4 weeks. The L-arginine phytanate is incorporated into free powder mixture of flavoring agents and palatinose, which is then combined with water. Once in the plasma L-arginine phytanate then exerts a synergistic lean tissue promoting effect due to the anabolic actions of phytanic acid and L-arginine. Phytanic acid activates PPAR alpha, beta/delta, gamma, and increases nitric oxide synthase thus increasing nitric oxide production. This wide range of PPAR receptor activation and nitric oxide release combined with a high protein diet and anaerobic training program, enhances muscle building and fat loss. The L-arginine synergistically promotes protein synthesis and nitric oxide release. These physiological functions lead to increases in lean body mass, strength, endurance, recovery and loss of body fat. The test subject reported a weight gain of 5 lbs., a 25-pound increase in 1 repetition maximum (RM) bench press, and 6-repetition increase in initial 70 percent maximum bench press at the end of the L-arginine phytanate 4-week period as compared to baseline values. These increases contribute to the regulation of athletic function and thus lead to enhanced physical performance. […] During the final phase of the experiment, the test subject reported no increases in body weight, 1 repetition maximum bench press, or 70 percent maximum bench press.

[1] = same subject, final phase after 4-week washout, orally in the same manner post workout for 4 weeks, result in words
[2] = experienced weight trained person, 3 grams orally post workout for 4 weeks, end of 4-week period compared to baseline

SMILES	1 repetition maximum bench press change [1]	70 percent maximum bench press change [1]	body weight change [1]	weight gain (experienced weight trained person, 3 grams orally post workout for 4 weeks as a beverage, end of 4-week period compared to baseline) [lbs.]	increase in 1 repetition maximum (RM) bench press [2] [pound]	increase in initial 70 percent maximum bench press [2] [repetition]
CC(C)CCCC(C)CCCC(C)CCCC(C)CC(=O)O (stereo not drawn) [phytanic acid, 3,7,11,15-tetramethylhexadecanoic acid]	no increases	no increases	no increases; also recorded: decrease in body weight	–	–	–
CC(C)CCCC(C)CCCC(C)CCCC(C)CC(=O)O.N=C(N)NCCC[C@H](N)C(=O)O [L-arginine phytanate, 3,7,11,15-tetramethylhexadecanoic L-arginine salt]	–	–	–	5	25	6
